Consider one compound from patent publication US9283218B2, “Solid dispersion with improved solubility comprising tetrazole derivative as an active ingredient” (HANMI PHARM. CO., LTD., priority 2012, dated 2016).

Counter-ions that a name gives are not always drawn.

Data set [1] can be described thus: Solubilities of active ingredient in various solvents (excess added, shaken 2 hours, centrifuged, HPLC). Format: physicochemical. On the procedure: In order to find out the most suitable solvent for the solid dispersion, an excessive amount of HM30181A, as an active ingredient, was added to a solvent, shook for 2 hours, and then the resulting mixture was centrifuged and analyzed by HPLC to measure the solubility. Solvents used for solubility test were MC, methanol, EtOH, hexane, diethyl ether, isopropyl alcohol, acetone and DW.

Data set [2] in a line: Dissolution characteristics of HM30181A in mixed solvents of MC, EtOH and DW. In kind it is physicochemical.
Setting [3] is: Composition 1: HM30181A 15 mg, methylene chloride 450 mg, ethanol 50 mg, distilled water 0 mg.
Setting [4] is: Composition 2: HM30181A 15 mg, methylene chloride 350 mg, ethanol 150 mg, distilled water 0 mg.
The mark [5] stands for this setting: Composition 3: HM30181A 15 mg, methylene chloride 250 mg, ethanol 250 mg, distilled water 0 mg.
[6] abbreviates: Composition 5: HM30181A 15 mg, methylene chloride 350 mg, ethanol 150 mg, distilled water 25 mg.

In the case of `COc1cc2c(cc1OC)CN(CCc1ccc(-n3nnc(-c4cc(OC)c(OC)cc4NC(=O)c4cc(=O)c5ccccc5o4)n3)cc1)CC2` [HM30181A, chromone-2-carboxylic acid [2-(2-{4-[2-(6,7-dimethoxy-3,4-di-hydro-1H-isoquinolin-2-yl)-ethyl]-phenyl}-2H-tetrazol-5-yl)-4,5-dimethoxyphenyl]amine mesylate], the Solubility in data set [1] (solvent: acetone) is on record as 9.23 ppm; in data set [1] (solvent: diethyl ether), 0.00 ppm; in data set [1] (solvent: distilled water) it was 0.00 ppm; in data set [1] (solvent: ethanol), 382.63 ppm; in data set [1] (solvent: hexane) it was 0.05 ppm; in data set [1] (solvent: isopropyl alcohol), 31.29 ppm. Moreover, the Solubility is on record as 10177.50 ppm in data set [1] (solvent: methanol); 6848.28 ppm in data set [1] (solvent: methylene chloride); 10,260 ppm in data set [2] (setting [3]); 20,370 ppm in data set [2] (setting [4]); 4,710 ppm in data set [2] (setting [5]); 27,850 ppm in data set [2] (setting [6]). The Solution appearance entry is “Clouded” in data set [2] (setting [3]), “Clouded” in data set [2] (setting [4]), “Clouded” in data set [2] (setting [5]) and “Clear” in data set [2] (setting [6]).
